Consider two molecules from patent US20220079966A1, “HYALURONAN SYNTHESIS INHIBITION FOR TREATING AUTOIMMUNE, INFLAMMATORY, FIBROTIC, OR PROLIFERATIVE DISEASES OR DISORDERS” (The Board of Trustees of the Leland Stanford Junior …, priority 2018, published 2022).

Each structure is given as a SMILES string.

In one data set the test system is CTLL2 cells. The data set is described as follows: HA synthesis inhibition in CTLL2 lymphoma cells. The data set is classed as cell-based. To be noted: lymphoma cell line. Here is the method: (§1) Samples were thawed and assayed for HA levels using a modified HA ELISA as previously described (Nagy N., et al., J. Clin. Invest. 2015; 125(10):3928-3940). Each sample was analyzed in triplicate with a mean value obtained per sample. For cell normalization, LI-COR CellTag™ 700 Stain was used according to the manufactures protocol.

The next data set relates to db/db mice. The data set is described as follows: db/db mouse model of type 2 diabetes. The settings on record: for body weight of db/db mice: after start of treatment; for intra-peritoneal glucose tolerance testing (IPGTT): fasting db/db mice fed drug for previous 2 weeks; for HA staining in pancreatic islets of db/db mice: mouse, in vivo; for blood glucose (BG) levels in db/db mice: over one month, 4-MU chow or 4-MUG in drinking water vs control chow. It is filed as in vivo. The source says:
All animals were bred and maintained under specific pathogen-free conditions, with free access to food and water, in the animal facilities at Stanford University Medical School (Stanford, Calif.). B6 db/db LeptR−/− mice were purchased from Jackson Laboratories (JAX) as well as DO11.10 transgenic mice. The DO11.10 mice were bred with Balb/c mice expressing RIPmOva (ovalbumin peptide amino acids 323-339; available at the Benaroya Research Institute) to generate the DORmO double-transgenic mice. In addition, C57Bl/6J mice were bred in-house at Stanford University School of Medicine.
Beginning at four weeks of age, mice were weighed weekly as well as bled via the tail vein for the determination of their blood glucose level using a Contour® blood glucose meter and blood glucose monitoring strips (Bayer Healthcare). When two consecutive blood glucose readings of 250 mg/dL were recorded, animals were considered diabetic. When two consecutive blood glucose readings of 300 mg/dL were recorded, animals were euthanized.
(§2) The 4-MU (Alfa Aesar) was pressed into mouse chow (TestDiet, St. Louis, Mo.) and irradiated before shipment, as previously described (Nagy N., et al., Circulation. 2010; 122(22):2313-2322). This chow formulation delivers 250 mg/mouse/day, yielding a serum drug concentration of 640.3±17.2 nmol/L in mice, as measured by HPLC-MS. 4-MUG (ChemImpex, Wood Dale, Ill.) was distributed in the drinking water at a concentration of 2 mg/ml, delivering 10 mg/mouse/day, yielding a serum drug concentration of 357.1±72.6 ng/mL in mice, as measured by LC-MS/MS. Mice were initiated on 4-MU and 4-MUG at five, eight or twelve weeks of age, unless otherwise noted, and were maintained on this diet until they were euthanized, unless otherwise noted. For analysis of Foxp3+ regulatory T-cell numbers in naïve mice, mice were treated daily with 0.5 mg of 4-MU or 1.0 mg 4-MUG in 200 μl 0.08% carboxymethylcellulose in saline by intra-peritoneal injection.
To assess whether 4-MUG is effective against HA synthesis in a different inflammatory disease that is non-autoimmune in nature, the role of 4-MUG in the db/db model of type 2 diabetes was investigated. db/db mice lack a functional leptin receptor and are obese and diabetic.
Referring to FIG. 7D, the beneficial effect of 4-MU and 4-MUG on glycemic control was maintained for at least 10 weeks, indicating a lasting improvement. FIGS. 7F and 7G show intra-peritoneal glucose tolerance testing (IPGTT) of fasting db/db mice fed 4-MU or 4-MUG for 2 weeks.

The conditions of data set [1]: cited from earlier work.
For data set [2], the system named is B16F10 cells. As to the kind of experiment: 4-MU fluorescence of treated B16F10 cells by flow cytometry, pre- and post-permeabilization. It is filed as in vitro ADME, murine. Here is the method:
Fluorescent values of 4-MUG were normalized to the 4-MU fluorescence. Referring to FIG. 2 B, 4-MU or 4-MUG was added to PBS with 10% FCS and the increase of fluorescence signal using a fluorescence plate reader was monitored at intervals up to 72 hours. […] B16F10 cells were cultured in DMEM and were treated with different concentrations of 4-MU and 4-MUG (30, 100, 300 μM) for 24 and 48 hours. Cultured cells were lysed and analyzed for HA concentration determination using an HA ELISA. HA staining in B16F10 cells placed in 96 well plates were imaged using fluorescence microscopy. To measure 4-MU florescence intensity in B16F10 cells treated with 4-MU and 4-MUG, B16F10 cells were trypsinized and 4-MU fluorescence associated with the cells was analyzed by flow cytometry in the Pacific Blue channel using a BD™ LSRII flow cytometer. For permeabilization, after trypsinization, cells were incubated in methanol at −20° C. for 20 min and washed once before flow cytometric analysis.
For orientation: In flow cytometry, cells or beads pass a laser one at a time.

Data set [3] deals with B16F10 cells. The data set is described as follows: HA production and HA staining by B16F10 melanoma cells (HA ELISA, HABP staining). The data set is classed as cell-based, murine. To be noted: for HA production (HA synthesis inhibition) by B16F10 cells: 48 hours of drug exposure, 30, 100, 300 μM, HA ELISA; for HA staining of B16F10 cells with HA binding protein (HABP): fluorescent staining. Here is the method: To test this, murine melanoma cells (B16F10), a cell line known to produce abundant HA, were used. […] FIGS. 4D and 4E show HA production by B16F10 cells cultured for 48 hours in 4-MU (FIG. 1D) or 4-MUG (FIG. 1E). […] Data represent mean±SEM; *, p<0.05 by unpaired t test. Similar findings were seen as well in primary lymphocytes.
B16F10 cells were cultured in DMEM and were treated with different concentrations of 4-MU and 4-MUG (30, 100, 300 μM) for 24 and 48 hours. Cultured cells were lysed and analyzed for HA concentration determination using an HA ELISA. HA staining in B16F10 cells placed in 96 well plates were imaged using fluorescence microscopy. To measure 4-MU florescence intensity in B16F10 cells treated with 4-MU and 4-MUG, B16F10 cells were trypsinized and 4-MU fluorescence associated with the cells was analyzed by flow cytometry in the Pacific Blue channel using a BD™ LSRII flow cytometer. For permeabilization, after trypsinization, cells were incubated in methanol at −20° C. for 20 min and washed once before flow cytometric analysis.
as §1

The next data set deals with Min6 cells. The data set is described as follows: HA synthesis inhibition in Min6 insulinoma cells. The data set is classed as cell-based. To be noted: insulinoma cell line. Here is the method: as §1
Data set [4] deals with Foxp3+ regulatory T-cells. The data set is described as follows: Splenocyte regulatory T-cell analysis in wild type mice treated i.p. for 14 days. It is filed as in vivo. To be noted: 4-MU 0.5 mg i.p. or 4-MUG 1 mg i.p. daily for 14 days; for Foxp3+ amongst CD3+/CD4+ cells in splenocytes: flow cytometry. Here is the method: as §2
Spleens were extracted from mice and cells were harvested by homogenization through a 70 μm cell strainer. Red blood cells were lysed using ACK buffer, after which the splenocyte suspensions were stained according to the protocol described above with the following fluorochrome-conjugated antibodies. V500-CD3 (500A2), BV785-CD4 (RM4-5) and A1488-Foxp3 (FJK-16s). Flow cytometry was performed on an LSRII and data analysis was done using FlowJo (Treestar).

For the molecule `Cc1cc(=O)oc2cc(O[C@@H]3O[C@H](C(=O)O)[C@@H](O)[C@H](O)[C@H]3O)ccc12` [4-MUG, 4-methylumbelliferone-glucuronide], in the data set on CTLL2 cells, the “HA synthesis inhibition in CTLL2 cells” value is “inhibited HA synthesis”. Also, in the data set on db/db mice, the “body weight of db/db mice” value is recorded as “soon recovered”, the “intra-peritoneal glucose tolerance testing (IPGTT)” value is listed as “improvement in glycemic control”, the “HA staining in pancreatic islets of db/db mice” value is given as “reduced HA staining” and the “blood glucose (BG) levels in db/db mice” value was “reliably decreased blood glucose”. Further, in data set [1] (animal studies), the “concentration of 4-MUG relative to parent molecule 4-MU” value was 300 fold. The “median plasma concentration of 4-MUG relative to 4-MU” value in data set [1] (mouse models) is reported as “more than 3,000 fold”. Further, the “time after which treated B16F10 cells became fluorescent” value in the data set with B16F10 cells [2] (incubated 24, 48 or 72 hours, flow cytometry) lay in the range of 48 to 72 h. Besides, in the data set with B16F10 cells [3], the “HA production (HA synthesis inhibition) by B16F10 cells” value is given as “concentration dependent inhibition of HA synthesis” and the “HA staining of B16F10 cells with HA binding protein (HABP)” value is reported as “reduced HA”. Further, the “HA synthesis inhibition in Min6 cells” value in the data set with Min6 cells is listed as “inhibited HA synthesis”. In addition, in data set [4], the “CD4+ and CD3+ T-cell numbers in splenocytes” value is given as “not affected”; the “Foxp3+ MFI amongst CD3+/CD4+ cells in splenocytes” value is “increase in their expression of Foxp3”; the “Foxp3+ amongst CD3+/CD4+ cells in splenocytes” value is given as “increase of Foxp3+ regulatory T-cells”.

Consider `Cc1cc(=O)oc2cc(O)ccc12` [4-MU, 4-methylumbelliferone], for which the “HA synthesis inhibition in CTLL2 cells” value with CTLL2 cells is “HA synthesis inhibition”. In the data set with db/db mice, the “body weight of db/db mice” value is recorded as “initial decrease in weight”, the “intra-peritoneal glucose tolerance testing (IPGTT)” value was “improvement in glycemic control”, the “HA staining in pancreatic islets of db/db mice” value is “reduced HA staining” and the “blood glucose (BG) levels in db/db mice” value is reported as “reliably decreased blood glucose”. In data set [1] (in mice), the half-life is 3 min. Moreover, in the data set with B16F10 cells [2], the “fluorescence of treated B16F10 cells upon permeabilization” value is reported as “lost upon permeabilization”. Besides, in the data set on B16F10 cells [3], the “HA production (HA synthesis inhibition) by B16F10 cells” value is reported as “concentration dependent inhibition of HA synthesis” and the “HA staining of B16F10 cells with HA binding protein (HABP)” value is recorded as “reduced HA”. The “HA synthesis inhibition in Min6 cells” value in the data set on Min6 cells is recorded as “HA synthesis inhibition”. In data set [4], the “CD4+ and CD3+ T-cell numbers in splenocytes” value was “not affected”; the “Foxp3+ MFI amongst CD3+/CD4+ cells in splenocytes” value is recorded as “increase in their expression of Foxp3”; the “Foxp3+ amongst CD3+/CD4+ cells in splenocytes” value is “increase of Foxp3+ regulatory T-cells”.

As usually defined, the half-life is how long it takes for the measured level to halve.
